Experimental data: patent publication EP4796540A2, “N-SULFONAMIDE NITROGEN-CONTAINING FUSED HETEROCYCLIC COMPOUND, AND APPLICATION THEREOF” (priority 2023, dated 2025)

Experiment: In vivo pharmacokinetic study in mice
Settings: mouse, plasma; CD-1 mice (male), IV 1 mg/kg; read-out: Clint
Method: 1. Experimental purpose: To test the pharmacokinetics of compounds in CD-1 mice. 2. Experimental instrument and materials: Animals: CD-1 mice (male) Instrument: Intravenous injection: 40% HP-β-CD in water; intragastric administration: 0.2% HPC + 0.5% Tween80 in water. 6 male mice. Fasting treatment was performed in the evening before the administration, with free access to water. During the experiment, the mice were allowed to eat and drink freely, and administered by intravenous injection or gavage. After administration, the animal status was observed, and abnormal behaviors were recorded. Blood was collected from the orbit at 0.0833, 0.25, 1, 2, 4, 8, and 24 hours after intravenous injection, and at 0.25, 0.5, 1, 2, 4, 6, 8, and 24 hours after intragastric administration. 20 µL of plasma sample was taken and added with 250 µL of acetonitrile (containing dexamethasone as an internal standard) to precipitate proteins. The mixture was centrifuged at 4°C and 4000 rpm for 20 minutes, and 180 µL of the supernatant was taken and mixed with 180 µL of an aqueous solution containing 0.1% formic acid in a 96-well plate. […] Unknown samples were calculated by the standard curve. Pharmacokinetic parameters were calculated by the non-compartmental analysis model of WinNonlin 8.2 software and were presented in a report, including Clint, Cmax, AUC, etc. […]

`[2H]C([2H])([2H])Oc1nc(C(=O)NS(C)(=O)=O)ccc1NCC#Cc1cc2c(N[C@@H]3CCN(C)C[C@@H]3F)cccn2c1CC(F)(F)F` [Cpd-2, 5-((3-(8-(((3S,4R)-3-Fluoro-1-methylpiperidin-4-yl)amino)-3-(2,2,2-trifluoroethyl)indolizin-2-yl)prop-2-yn-1-yl)amino)-6-(methoxy-d3)-N-(methylsulfonyl)picolinamide] gave a clearance of 15 mL/min/kg.
